The record followed here is ChEMBL document CHEMBL3813652, “Arabinoamidine synthesis and its inhibition toward β-glucosidase (sweet almonds) in comparison to a library of galactonoamidines” (Bioorg Med Chem, 2016).

pIC50, pKi: −log10 of the molar value. Calls of active or inactive are those of the source. The rule behind the calls is not given here. Where only a bound is given, the exact number is not on record here.

The nature of assay [1]: Inhibition of sweet almond beta-glucosidase assessed as enzymatic hydrolysis of 2-chloro-4-nitrophenyl beta-D-glucopyranoside preincubated with substrate for 20 mins followed by protein addition by UV-visible spectroscopy. The arrangement: species or system Prunus dulcis.
Assay [2] can be described thus: Inhibition of sweet almond beta-glucosidase assessed as enzyme mediated hydrolysis of 2-chloro-4-nitrophenyl beta-D-glucopyranoside preincubated with substrate for 30 mins followed by protein addition measured every 10 secs for 10 mins by UV-visible spectroscopy. The arrangement: species or system Prunus dulcis.
The test system of assay [3] is Prunus dulcis. Briefly: Competitive inhibition of sweet almond beta-glucosidase assessed as enzymatic hydrolysis of 2-chloro-4-nitrophenyl beta-D-glucopyranoside at 0.0125 and 0.025 uM by Lineweaver-Burk plot.
In assay [4] the test system is Prunus dulcis. Description: Competitive inhibition of sweet almond beta-glucosidase assessed as enzymatic hydrolysis of 2-chloro-4-nitrophenyl beta-D-glucopyranoside at 200 and 1200 uM by Lineweaver-Burk plot.

As a reminder, the pIC50 is the negative decadic logarithm of the IC50, by convention in mol/L. One may read the pKi as the Ki on a negative log10 scale, so that one unit is a factor of ten. As to `OC[C@H]1N/C(=N\Cc2ccccc2F)[C@H](O)[C@@H](O)[C@H]1O`, the pIC50 in assay [1] was 5.74. In assay [2], the pKi was 3.93.
The like results for `OC[C@H]1N/C(=N\Cc2ccc(F)cc2)[C@H](O)[C@@H](O)[C@H]1O` were, in that order, 5.33 and 4.24.
The matching figures for `OC[C@H]1N/C(=N\Cc2ccccc2)[C@H](O)[C@@H](O)[C@H]1O`: 5.55 and 3.97.
The matching figures for `Cc1ccccc1C/N=C1\N[C@H](CO)[C@H](O)[C@H](O)[C@H]1O`: 5.08 and 4.58.
For `OC[C@H]1N/C(=N\C2CCCCC2)[C@H](O)[C@@H](O)[C@H]1O`, the pIC50 in assay [1] is below 2.30.
Consider `CO[C@@H]1[C@H](O)[C@@H](O)C(NCc2ccc(C)cc2)=N[C@@H]1CO`, for which the pIC50 in assay [1] was below 2.30. In assay [2], the pKi is 4.89.
The matching figures for `CCC/N=C1\N[C@H](CO)[C@H](O)[C@H](O)[C@H]1O`: 5.32 and 4.73.
The matching figures for `OC[C@H]1N/C(=N\Cc2cccc(F)c2)[C@H](O)[C@@H](O)[C@H]1O`: 4.96 and 3.91.
The like results for `CCCCCCCCCCCC/N=C1\N[C@H](CO)[C@H](O)[C@H](O)[C@H]1O` were, in that order, 6.40 and 4.69.
Take `CCCCC(CC)CNC1=N[C@H](CO)[C@H](O)[C@H](O)[C@H]1O` (stereo partly drawn): the pIC50 in assay [1] was 5.60. For the same compound, in assay [2], the pKi was 4.76.
The like results for `OC[C@H]1N/C(=N\CCCc2ccccc2)[C@H](O)[C@@H](O)[C@H]1O` were, in that order, 5.89 and 4.55.
The matching figures for `OC[C@H]1N/C(=N\CC2CC2)[C@H](O)[C@@H](O)[C@H]1O`: 4.72 and 4.94.
The like results for `Cc1ccc(CNC2=N[C@H](CO)[C@H](O)[C@H](O)C2)cc1` were, in that order, below 2.30 and 5.11.
Turning to `COc1ccc(C/N=C2\N[C@H](CO)[C@H](O)[C@H](O)[C@H]2O)cc1`, in assay [1], the pIC50 is 4.89. In addition, in assay [2], the pKi is 4.25.
With `Cc1ccc(C/N=C2\N[C@H](CO)[C@H](O)[C@H](O)[C@H]2O)cc1`, in assay [1], the pIC50 was 5.52. Further, the pKi in assay [2] is 7.59. In addition, the inhibition result in assay [3] and in assay [4] was “Active” each time.
For `Cc1cccc(C/N=C2\N[C@H](CO)[C@H](O)[C@H](O)[C@H]2O)c1`, the pIC50 in assay [1] is 5.29. Also, the negative-log Ki (pKi) in assay [2] is 3.53.
The like results for `OC[C@H]1N/C(=N\CC2CCCCC2)[C@H](O)[C@@H](O)[C@H]1O` were, in that order, 5.80 and 4.31.
The like results for `OC[C@H]1N/C(=N\C2CC2)[C@H](O)[C@@H](O)[C@H]1O` were, in that order, 4.49 and 4.93.
Regarding `OC[C@H]1N/C(=N\CC2CCCCCC2)[C@H](O)[C@@H](O)[C@H]1O`, the pIC50 in assay [1] was 5.30. In assay [2], the pKi is 4.57.
As for `Cc1ccc(CNC2=N[C@H](CO)[C@@H](O)[C@@H]2O)cc1`, the pIC50 in assay [1] is 2.21. For the same compound, in assay [2], the pKi was 3.01. Further, the inhibition entry in assay [3] and in assay [4] was “Active” in each case.
Take `CC(C)(C)c1ccc(C/N=C2\N[C@H](CO)[C@H](O)[C@H](O)[C@H]2O)cc1`: in assay [1], the pIC50 was 5.64. Further, in assay [2], the pKi was 4.83.
In the case of `OC[C@H]1N/C(=N\Cc2ccc(C(F)(F)F)cc2)[C@H](O)[C@@H](O)[C@H]1O`, in assay [1], the pIC50 was 5.55. Besides, the pKi in assay [2] is 4.06.
The matching figures for `CCCCCCC/N=C1\N[C@H](CO)[C@H](O)[C@H](O)[C@H]1O`: 5.66 and 4.53.
The like results for `CO[C@H]1C(NCc2ccc(C)cc2)=N[C@H](CO)[C@H](O)[C@@H]1O` were, in that order, below 2.30 and 5.30.
On to `N=C1N[C@H](CO)[C@H](O)[C@H](O)[C@H]1O`, for which, in assay [1], the pIC50 was below 3.00.
On the same count and under the same terms, with `O=C1N[C@H](CO)[C@H](O)[C@H](O)[C@H]1O` the figure was below 3.00.
